In article PMC5667506, “Potent and selective inhibition of SH3 domains with dirhodium metalloinhibitors” (Chemical Science, 2015):

Experiments:
[1] = biological target: T1, Full-length Lyn kinase (GST-tagged Lyn B) (Homo sapiens, UniProt P07948); assay: Lyn kinase activation assay (ADP-Glo Kinase Assay); format: biochemical; details: 74 nM Lyn, 5 min
T1 construct: Full-length Lyn kinase (74 nM) was treated with substrate peptide and ATP; purchased Promega
Protocol: We examined phosphorylation of a peptide substrate at low enzyme concentration (0.074 μM) and short reaction time (t = 5 min) to minimize the alternative autophosphorylation activation pathway (Fig. 6). Kinase activation with traditional ligands has typically required high ligand concentrations (∼1 mM) to overcome the intramolecular nature of the SH3–kinase domain interaction.
Fig. 6 Activation of Lyn kinase activity by a metallopeptide, S2E^Rh, and the parent peptide, S2E. […] Full-length Lyn kinase (74 nM) was treated with substrate peptide and ATP. Kinase activity was measured after 5 min in an adaptation of reported methods.[5] See ESI ^† for details.
All chemical reagents were purchased from Sigma-Aldrich and were used without further purification. […]
Kinase assay. ATP turnover by Lyn was measured using the ADP-GloTM Kinase Assay (Promega) according to the manufacturer’s protocol. Briefly, final concentrations of 72 μM ATP, 74 nM Lyn (GST-tagged Lyn B), and 240 μM substrate peptide (all from Promega) were combined in buffer (40 mM Tris, 50 μM dithiothreitol, 2 mM MnCl2 and 0.1 mg/mL BSA at pH 7.5) with a solution of the desired treatment (or control) in the same buffer for a final reaction volume of 5 µL. The kinase reaction was allowed to proceed at room temp. for 5 min from addition of ATP before the start of the ADP-Glo protocol halted the reaction. Chemiluminescence data were acquired on a Tecan Infinite M1000 microplate reader in white 384 well low volume plates (Corning Costar 3674) with an integration time of 250 ms per well. […]

Src SH3 domain = biological target: T2, Src SH3 domain (Homo sapiens, UniProt P12931); assay: ITC binding to Src SH3 domain
T2 construct: fyn, yes, lck, and src SH3 protein domains were prepared following published procedures; made in house
Protocol: All chemical reagents were purchased from Sigma-Aldrich and were used without further purification.
Peptide synthesis. All peptides were synthesized manually or with an AAPPTEC APEX 396 Automated Multipeptide Synthesizer using standard solid-phase Fmoc protocols.1,2 Peptides were prepared as C-terminal amides using Rink amide MBHA resin (AAPPTEC) and were acetylated at the N-terminus prior to cleavage from the resin. Peptides and metallopeptides were purified by reverse-phase HPLC.
HPLC separation. Reverse-phase HPLC was performed on a Shimadzu CBM-20A instrument with Phenomenex Jupiter 4μ Proteo 90A (250 × 15 mm preparative) and Phenomenex Jupiter 4μ Proteo 90A (250 × 4.6 mm analytical) columns. The columns were eluted with a gradient of acetonitrile in water (10-90%) (flow rates of 8 mL/min and 1 mL/min for preparative and analytical columns, respectively). Trifluoroacetic acid (0.1%) was added to all eluents.
FPLC separation. Analytical FPLC was performed on an ÄKTA instrument with Superdex Peptide PE 7.5/300 column. The column was equilibrated with buffer (150 mM NaCl, 50 mM Tris, pH 7.0) at flow rate of 0.2 mL/min.
ITC analysis. ITC experiments were carried out on a VP-ITC instrument (MicroCal) at 25 °C. Titrations of 275 μM peptide into 18 μM SH3 domain proteins were used for all titrations, except for the titration of S2ERh into Lyn SH3 domain, where the lower concentrations of 69 µM S2ERh peptide and 4 µM Lyn SH3 were used to attain a c-value for the titration within the accepted limts for ITC experiments ([…]).3
Heats of dilutions were measured independently for each experiment by titrating 275 μM peptide into buffer (20 mM phosphate buffer, pH 7, 150 mM NaCl, 1 mM EDTA). All experimental data were fitted using a one set of sites binding model in Origin software (MicroCal) except for the data with Hck SH3 domain. With Hck only, the non-peptide specific binding of dirhodium tetraacetate to Hck SH3 domain could not be treated as negligible, despite the very weak interaction (88 µM), due to the larger enthalpy contribution observed for non-specific binding to this SH3 domain, so the titrations of peptide into Hck were fitted using a 2 set of sites binding model where the stoichiometry for the second set of sites was fixed at 2.0. […]
Mass spectrometry. ESI-MS was performed on a Bruker Daltonics micrOTOF instrument.
Known compounds and proteins. Several metallopeptides (S2ERh, L3ERh, R5ERh, and 13DRh) were reported previously and were prepared by known protocols;4 alkyne-diazo 3,5 3-azido-7-hydroxycoumarin6 were synthesized following reported procedures; fyn, yes, lck, and src SH3 protein domains were prepared following published procedures.5 Abl, hck, and lyn SH3 domain plasmids were adapted from the previously reported genes;7 the gene templates were obtained from Addgene, ID

T1 sequence (P07948 1-491 isoform P07948-2): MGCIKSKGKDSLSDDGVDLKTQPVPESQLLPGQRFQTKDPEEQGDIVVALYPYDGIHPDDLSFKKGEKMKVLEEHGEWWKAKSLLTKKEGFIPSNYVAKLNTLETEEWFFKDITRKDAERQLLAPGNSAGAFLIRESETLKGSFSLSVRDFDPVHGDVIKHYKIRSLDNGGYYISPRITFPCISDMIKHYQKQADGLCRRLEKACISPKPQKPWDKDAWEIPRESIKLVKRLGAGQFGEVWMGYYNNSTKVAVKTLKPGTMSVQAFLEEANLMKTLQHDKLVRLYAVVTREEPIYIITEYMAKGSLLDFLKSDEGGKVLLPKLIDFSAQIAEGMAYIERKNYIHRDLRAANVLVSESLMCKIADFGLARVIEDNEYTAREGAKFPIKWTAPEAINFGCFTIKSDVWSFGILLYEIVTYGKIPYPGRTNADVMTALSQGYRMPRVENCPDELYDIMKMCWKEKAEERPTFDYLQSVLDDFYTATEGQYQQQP

concentration above which slight activation is seen [1]: above 100 μM | concentration at which complete activation response was achieved [1]: 630 nM | concentration giving strong Lyn activation [1]: 200 nM | Stoichiometry (Src SH3 domain): 1.1 | -TΔS (Src SH3 domain; 25 °C): 7.2 kcal/mol | Kd (Src SH3 domain; 25 °C): 327 nM | ΔG (Src SH3 domain; 25 °C): -8.8 kcal/mol | ΔH (Src SH3 domain; 25 °C): -16.0 kcal/mol
Substance: AcVELARRPLPPLPN-NH2 [S2E^Rh]
